This passage reports IC50 results from patent US6417190B1, “Tricyclic nitrogen heterocycles as PDE IV inhibitors” (Boehringer Ingelheim Pharma KG, priority 1998, dated 2002).

The assay concerns human PDE IV. Put plainly: PDE IV inhibition, method of Torphy et al. (1992), [3H]cAMP, enzyme purified from human monocytes (U937-cells). To be noted: 1 μCi/ml [3H] cAMP, 40 mM Tris-HCl (pH 7.8), 3 mM MgCl2, incubation 30 min at 30° C. The class given is biochemical. The text has this:
Table 1 contains the pharmacological data obtained for the compounds of general formula (I). The data was obtained by the method of Torphy et al. (1992), J. Pharmacol. Exp. Ther. 263:1195.
In turn, `CCCn1c(=O)c2[nH]c(C3CCCC3)nc2n2nc(C(C)C)nc12` [No. 1] had a half-inhibitory concentration (IC50) of 0.018 µM.

Take `CCCn1c(=O)c2[nH]c(C3CCCC3)nc2n2nc(CC)nc12` [No. 2]: the half-inhibitory concentration (IC50) came to 0.039 µM.

`CCn1c(=O)c2[nH]c(C(C)(C)C)nc2n2nc(Cc3ccc(OC)cc3)nc12` [No. 3] yielded a half-maximal inhibitory concentration (IC50) of 0.042 µM.

In turn, `CCn1c(=O)c2[nH]c(C3CCCC3)nc2n2nc(CCc3ccccc3)nc12` [No. 4] returned an IC50 of 0.046 µM.

Consider `CCCc1nc2n(CCC)c(=O)c3[nH]c(C4CCCC4)nc3n2n1` [No. 6], for which the half-maximal inhibitory concentration (IC50) came out at 0.049 µM.

In turn, `CCn1c(=O)c2[nH]c(C(C)(C)C)nc2n2nc(Cc3ccccc3)nc12` [No. 7] yielded an IC50 of 0.053 µM.

`CCCc1nc2n(CCC)c(=O)c3[nH]c(-c4ccccc4)nc3n2n1` [No. 8] had an IC50 of 0.055 µM.

`CCn1c(=O)c2[nH]c(C3CCCC3)nc2n2nc(Cc3ccccc3)nc12` [No. 9]: inhibition was half-maximal at 0.057 µM (IC50).

`CCCc1nc2c([nH]1)c(=O)n(CCC)c1nc(Cc3ccccc3)nn21` [No. 10] showed an IC50 of 0.069 µM.

As to `CCn1c(=O)c2[nH]c(C3CCCC3)nc2n2nc(Cn3cccc3)nc12` [No. 11], half-maximal inhibition (IC50) required 0.069 µM.

Consider `CCCn1c(=O)c2[nH]c(C3CCCC3)nc2n2nc(Cc3ccccc3)nc12` [No. 12], for which the IC50 is 0.074 µM.

The compound `CCCn1c(=O)c2[nH]c(C3CCCC3)nc2n2nc(C(C)(C)C)nc12` [No. 13] gave an IC50 of 0.079 µM.

`CCCCc1nc2n(CCC)c(=O)c3[nH]c(C4CCCC4)nc3n2n1` [No. 14] had a concentration for half-maximal inhibition (IC50) of 0.081 µM.

Regarding `CCn1c(=O)c2[nH]c(C3CCCC3)nc2n2nc(COc3ccccc3)nc12` [No. 15], the half-maximal inhibitory concentration (IC50) amounted to 0.11 µM.

In the case of `CCCn1c(=O)c2[nH]c(N3CCOCC3)nc2n2nc(Cc3ccccc3)nc12` [No. 16], it took 0.11 µM to reach half-maximal inhibition (IC50).

The compound `CCn1c(=O)c2[nH]c(C3CCCC3)nc2n2nc(CC3CCCCC3)nc12` [No. 17] yielded an IC50 of 0.11 µM.

Compound `CCc1nc2c([nH]1)c(=O)n(CC)c1nc(CC3CCCCC3)nn21` [No. 18] yielded a half-inhibitory concentration (IC50) of 0.12 µM.

In turn, `CCCc1nc2c([nH]1)c(=O)n(CCC)c1nc(C3CCCC3)nn21` [No. 19] had an IC50 of 0.12 µM.
